Experimental data as given in paper PMC6148290, “Endogenous metabolites of vitamin E limit inflammation by targeting 5-lipoxygenase” (Nature Communications, 2018).

Key:
12-LO = target: T1, 12-LO (Homo sapiens, UniProt P18054); experiment: 12-LO product formation in A23187/AA-activated PMNL; format: cell-based; conditions: at 3 µM; mean ± s.e.m., n = 3; n.i. no inhibition
T1 construct: 12-HETE (12-LO product from platelets in PMNL preparations); endogenous in cells; host or cells: platelets contaminating human PMNL preparations
T1 sequence (P18054 1-663): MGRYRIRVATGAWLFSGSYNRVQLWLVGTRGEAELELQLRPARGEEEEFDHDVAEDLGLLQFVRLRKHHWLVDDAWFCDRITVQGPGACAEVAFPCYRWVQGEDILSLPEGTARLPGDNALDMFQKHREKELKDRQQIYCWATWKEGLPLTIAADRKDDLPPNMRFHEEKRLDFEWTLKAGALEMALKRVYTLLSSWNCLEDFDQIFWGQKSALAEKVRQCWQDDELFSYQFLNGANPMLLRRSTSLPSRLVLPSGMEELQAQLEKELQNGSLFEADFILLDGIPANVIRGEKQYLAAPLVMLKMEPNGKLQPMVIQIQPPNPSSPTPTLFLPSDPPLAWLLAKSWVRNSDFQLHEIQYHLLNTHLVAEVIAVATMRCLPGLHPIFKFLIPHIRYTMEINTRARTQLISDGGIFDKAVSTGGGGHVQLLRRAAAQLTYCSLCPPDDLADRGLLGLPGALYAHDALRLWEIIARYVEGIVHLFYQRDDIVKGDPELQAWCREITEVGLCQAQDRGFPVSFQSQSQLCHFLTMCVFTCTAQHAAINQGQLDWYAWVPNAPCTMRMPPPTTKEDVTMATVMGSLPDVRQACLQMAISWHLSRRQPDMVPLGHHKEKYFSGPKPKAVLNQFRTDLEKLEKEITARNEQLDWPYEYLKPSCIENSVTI
Procedure: (§1) Cells were washed and medium was exchanged. Freshly isolated PMNL (1 × 10^7) and stably transfected HEK-293 (1 × 10^6) cells were suspended in PBS pH 7.4 containing 1 mg/ml glucose and 1 mM CaCl2. […] A23187- and A23187/AA-treated PMNL and A23187/AA-treated HEK-293 (5-LO_wt), HEK-293 (5-LO_3W) and HEK-293 (5-LO_Arg101Asp) cells produced 135 ± 21, 636 ± 112, 300 ± 59, 133 ± 29, 55 ± 9 ng 5-LO products, respectively. PMNL synthesized 29 ± 6 ng 12-HETE and 97 ± 23 ng 15-HETE when challenged with A23187/AA. 5-LO products from monocytes were analyzed by UPLC-MS/MS.

15-LO = 15-LO product formation in A23187/AA-activated PMNL; format: cell-based, human; conditions: at 3 µM; mean ± s.e.m., n = 3; n.i. no inhibition
Procedure: as §1

[1] = system: peripheral blood mononuclear cells; experiment: Cell viability of PBMC (MTT assay); format: cell-based, human; conditions: at 1 and 10 µM (one entry for both); 24 h; n.i. no inhibition
Procedure: The formazan product was solubilized with SDS (10% in 20 mM HCl), and absorbance was measured at 570 nm using a Multiskan Spectrum microplate reader (Thermo Fisher Scientific).

DPPH radical scavenging = conditions: DPPH
Procedure: Compounds were incubated with 2,2-diphenyl-1-picrylhydrazyl (DPPH, Sigma-Aldrich; […]) in ethanol for 30 min. Absorbance was measured at 520 nm using a Multiskan Spectrum Microplate Reader (Thermo Fisher Scientific)[35]. Ascorbic acid (Sigma-Aldrich; 50 µM), used as control, scavenged DPPH radicals by 82.4 ± 1.9%.

intracellular Ca^2+ = experiment: Intracellular Ca2+ in fMLP-stimulated PMNL; format: cell-based, human
Procedure: PMNL (1 × 10^6) were incubated with Fura-2/AM (Thermo Fisher Scientific; 2 nmol) for 45 min at 37 °C, washed, resuspended in PBS pH 7.4 plus 1 mg/ml glucose and transferred to fluorescene 96-well microplates (Greiner). After pre-incubation with compounds for 10 min, 1 mM Ca^2+ was added, and cells were stimulated with fMLP (1 µM) for another 10 min. Intracellular Ca^2+ concentrations were determined using a thermally (37 °C) controlled NOVOstar fluorescence microplate reader [BMG Labtech, Ortenberg, Germany; emission at 510 nm, excitation at 340 nm (Ca^2+-bound Fura-2) and 380 nm (free Fura-2)][17]. The maximal fluorescence signal was recorded after lysis of […] with Triton X-100, and the minimal fluorescence was assessed by adding 20 mM EDTA to chelate Ca^2+. The difference in the signal ratio obtained with Triton X-100 and Triton X-100 plus 20 mM EDTA was set to 100% for each experiment.

[2] = Water solubility (statement); format: physicochemical; conditions: authors' statement in reply to reviewer

C/C(=C\CC/C(C)=C/CC[C@]1(C)CCc2cc(O)cc(C)c2O1)CC/C=C(\C)C(=O)O [4h, garcinoic acid]
12-LO product formation/PMNL, residual activity (12-LO): 75.1 ± 12.1 % of control | 15-LO product formation/PMNL, residual activity (15-LO): 128.6 ± 42.3 % of control | Cell viability/peripheral blood mononuclear cells, residual viability [1]: n.i. | radical scavenging as measure for antioxidant activity (DPPH radical scavenging): only evident at micromolar | concentration at which intracellular Ca^2+-influx was significantly reduced (intracellular Ca^2+): ≥ 1 µM | water solubility [2]: poor
